Source: patent US5498632A, “Esters of acyl carnitines with long-chain aliphatic alcohols and pharmaceutical compositions containing same having antibacterial activity” (Sigma-Tau Industrie Farmaceutiche Riunite S.p.A., priority 1992, dated 1996)
Where two headings read alike, the source gives them in different places.

Columns and labels:
Assay type in all cases: cell-based
[1] = system: Bacillus pumilus (CN 607); experiment: MIC in broth, Gram+ strains; conditions: B. pumilus (CN 607), Mueller-Hinton broth, 37° C., 18 hours, read-out: Minimal Inhibitory Concentration (MIC)
Description: (§1) Evaluation of the Minimal Inhibitory Concentration (MIC) in broth of 15 new substances for Gram+ bacterial strains.
(§2) The following strains were used: Staphylococcus aureus (4); Streptococcus faecalis (8); Bacillus pumilus (1); Bacillus subtilis (1).
(§3) MICs were determined by a standard microdilution test, using serial two-fold dilutions of the substances in Mueller-Hinton broth.
(§4) The inoculum was prepared from an overnight culture in Mueller-Hinton broth matching the 0.5 Mc Farland (turbidity) standard (BRAY W. E., Clinical Laboratory Methods, 5th Ed. C. V. MOSBY, St. Louis, Mo. 1957), and was adjusted to a final concentration of 5.0×10^4 colony-forming units/ml.
(§5) Equal volumes (0.1 ml) of both bacterial suspensions and substance solutions were distributed in microtiter plates (Falcon, 96 wells, round bottom), and then placed in a humidified incubator (37° C.) for 18 hours.
(§6) The results, in terms of MIC values, resistant strain number and mean MIC values versus susceptible strains, are illustrated in Tables 1-6.

[2] = system: Bacillus subtilis (ATCC 6051); experiment: MIC in broth, Gram+ strains; conditions: ATCC6051, B. subtilis (ATCC 6051), Mueller-Hinton broth, 37° C., 18 hours, read-out: Minimal Inhibitory Concentration (MIC)
Description: as §1, §2, §3, §4, §5, §6

[3] = system: Staphylococcus aureus (303); experiment: MIC in broth, Gram+ strains; conditions: S. aureus (303), Mueller-Hinton broth, 37° C., 18 hours, read-out: Minimal Inhibitory Concentration (MIC)
Description: as §1, §2, §3, §4, §5, §6

[4] = system: Staphylococcus aureus (306 MR); experiment: MIC in broth, Gram+ strains; conditions: S. aureus (306 MR), Mueller-Hinton broth, 37° C., 18 hours, read-out: Minimal Inhibitory Concentration (MIC)
Description: as §1, §2, §3, §4, §5, §6

[5] = system: Staphylococcus aureus (ATCC 14154); experiment: MIC in broth, Gram+ strains; conditions: ATCC14154, S. aureus (ATCC 14154), Mueller-Hinton broth, 37° C., 18 hours, read-out: Minimal Inhibitory Concentration (MIC)
Description: as §1, §2, §3, §4, §5, §6

[6] = system: Staphylococcus aureus (LC1); experiment: MIC in broth, Gram+ strains; conditions: S. aureus (LC1), Mueller-Hinton broth, 37° C., 18 hours, read-out: Minimal Inhibitory Concentration (MIC)
Description: as §1, §2, §3, §4, §5, §6

[7] = system: Streptococcus faecalis (501); experiment: MIC in broth, Gram+ strains; conditions: Enterococcus faecalis; S. faecalis (501), Mueller-Hinton broth, 37° C., 18 hours; read-out: Minimal Inhibitory Concentration (MIC)
Description: as §1, §2, §3, §4, §5, §6

[8] = system: Streptococcus faecalis (505); experiment: MIC in broth, Gram+ strains; conditions: Enterococcus faecalis; S. faecalis (505), Mueller-Hinton broth, 37° C., 18 hours; read-out: Minimal Inhibitory Concentration (MIC)
Description: as §1, §2, §3, §4, §5, §6

[9] = system: Streptococcus faecalis (509); experiment: MIC in broth, Gram+ strains; conditions: Enterococcus faecalis; S. faecalis (509), Mueller-Hinton broth, 37° C., 18 hours; read-out: Minimal Inhibitory Concentration (MIC)
Description: as §1, §2, §3, §4, §5, §6

[10] = system: Streptococcus faecalis (516); experiment: MIC in broth, Gram+ strains; conditions: Enterococcus faecalis; S. faecalis (516), Mueller-Hinton broth, 37° C., 18 hours; read-out: Minimal Inhibitory Concentration (MIC)
Description: as §1, §2, §3, §4, §5, §6

[11] = system: Streptococcus faecalis (518); experiment: MIC in broth, Gram+ strains; conditions: Enterococcus faecalis; S. faecalis (518), Mueller-Hinton broth, 37° C., 18 hours; read-out: Minimal Inhibitory Concentration (MIC)
Description: as §1, §2, §3, §4, §5, §6

[12] = system: Streptococcus faecalis (519); experiment: MIC in broth, Gram+ strains; conditions: Enterococcus faecalis; S. faecalis (519), Mueller-Hinton broth, 37° C., 18 hours; read-out: Minimal Inhibitory Concentration (MIC)
Description: as §1, §2, §3, §4, §5, §6

[13] = system: Streptococcus faecalis (R 2); experiment: MIC in broth, Gram+ strains; conditions: Enterococcus faecalis; S. faecalis (R 2), Mueller-Hinton broth, 37° C., 18 hours; read-out: Minimal Inhibitory Concentration (MIC)
Description: as §1, §2, §3, §4, §5, §6

[14] = system: Streptococcus faecalis (UM); experiment: MIC in broth, Gram+ strains; conditions: Enterococcus faecalis; S. faecalis (UM), Mueller-Hinton broth, 37° C., 18 hours; read-out: Minimal Inhibitory Concentration (MIC)
Description: as §1, §2, §3, §4, §5, §6

Gram+ bacterial strains = experiment: Mean MIC in broth and resistant strain number, Gram+ strains; conditions: 18 h, versus susceptible strains
Description: as §1, §2, §3, §4, §5, §6

Escherichia coli (92 F) = experiment: MIC in broth, Gram- strains; conditions: 18 h, E. coli (92 F), read-out: Minimal Inhibitory Concentration (MIC)
Description: as §3, §4, §5
(§7) Evaluation of the Minimal Inhibitory Concentration (MIC) in broth of 16 new substances for Gram- bacterial strains.
(§8) The following strains were used: Enterobacter (1), Escherichia (3), Klebsiella (3), Proteus (3); Pseudomonas (2); Salmonella (2), Serratia (1).

Escherichia coli (R 57B) = experiment: MIC in broth, Gram- strains; conditions: 18 h, E. coli (R 57B), read-out: Minimal Inhibitory Concentration (MIC)
Description: as §3, §4, §5, §7, §8

[15] = system: Klebsiella aerogenes (SH 1082); experiment: MIC in broth, Gram- strains; conditions: 18 h, read-out: Minimal Inhibitory Concentration (MIC)
Description: as §3, §4, §5, §7, §8

Klebsiella oxytoca (552) = experiment: MIC in broth, Gram- strains; conditions: 18 h, read-out: Minimal Inhibitory Concentration (MIC)
Description: as §3, §4, §5, §7, §8

[16] = system: Klebsiella pneumoniae (7823); experiment: MIC in broth, Gram- strains; conditions: 18 h, read-out: Minimal Inhibitory Concentration (MIC)
Description: as §3, §4, §5, §7, §8

Proteus mirabilis (32) = experiment: MIC in broth, Gram- strains; conditions: 18 h, read-out: Minimal Inhibitory Concentration (MIC)
Description: as §3, §4, §5, §7, §8

Proteus morganii (D.S.) = experiment: MIC in broth, Gram- strains; conditions: Morganella morganii, 18 h, read-out: Minimal Inhibitory Concentration (MIC)
Description: as §3, §4, §5, §7, §8

Proteus vulgaris (UM) = experiment: MIC in broth, Gram- strains; conditions: 18 h, read-out: Minimal Inhibitory Concentration (MIC)
Description: as §3, §4, §5, §7, §8

[17] = system: Pseudomonas aeruginosa (10 E); experiment: MIC in broth, Gram- strains; conditions: 18 h, read-out: Minimal Inhibitory Concentration (MIC)
Description: as §3, §4, §5, §7, §8

[18] = system: Pseudomonas aeruginosa (3 E); experiment: MIC in broth, Gram- strains; conditions: 18 h, read-out: Minimal Inhibitory Concentration (MIC)
Description: as §3, §4, §5, §7, §8

Salmonella typhi (J) = experiment: MIC in broth, Gram- strains; conditions: Salmonella enterica, 18 h, read-out: Minimal Inhibitory Concentration (MIC)
Description: as §3, §4, §5, §7, §8

[19] = system: Salmonella typhimurium (D.S.); experiment: MIC in broth, Gram- strains; conditions: Salmonella enterica, 18 h, read-out: Minimal Inhibitory Concentration (MIC)
Description: as §3, §4, §5, §7, §8

Gram- bacterial strains = experiment: Mean MIC in broth and resistant strain number, Gram- strains; conditions: 18 h, read-out: Mean MIC values
Description: as §3, §4, §5, §7, §8

[20] = system: Enterobacter aerogenes (UM); experiment: MIC in broth, Gram- strains; conditions: Klebsiella aerogenes, 18 h, read-out: Minimal Inhibitory Concentration (MIC)
Description: as §3, §4, §5, §7, §8

`CCCCCCCCCCCOC(=O)CC(C[N+](C)(C)C)OC(=O)CCC(C)C` (centres unmarked) [ST 1034] gave an MIC [1] of 1.56 µg/mL, an MIC [2] of 3.12 µg/mL and an MIC [3] of 3.12 µg/mL. It also gave an MIC [4] of 3.12 µg/mL, an MIC [5] of 3.12 µg/mL and an MIC [6] of 1.56 µg/mL. The MIC [7] was 1.56 µg/mL, the MIC [8] was 1.56 µg/mL and the MIC [9] was 1.56 µg/mL. For the same molecule, the MIC [10] was 1.56 µg/mL, the MIC [11] was 1.56 µg/mL and the MIC [12] was 1.56 µg/mL. The MIC [13] was 1.56 µg/mL, the MIC [14] was 1.56 µg/mL and the MIC (Gram+ bacterial strains) was 2 µg/mL. It also gave an MIC (Escherichia coli (92 F)) of 25 µg/mL, an MIC (Escherichia coli (R 57B)) of 50 µg/mL and an MIC [15] of 25 µg/mL. The MIC (Klebsiella oxytoca (552)) was 12.5 µg/mL, the MIC [16] was 12.5 µg/mL and the MIC (Proteus mirabilis (32)) was greater than 100 µg/mL. For the same molecule, the MIC (Proteus morganii (D.S.)) was 100 µg/mL, the MIC (Proteus vulgaris (UM)) was greater than 100 µg/mL and the MIC [17] was 50 µg/mL. For the same molecule, the MIC [18] was 50 µg/mL, the MIC (Salmonella typhi (J)) was 25 µg/mL and the MIC [19] was 100 µg/mL. For the same molecule, the MIC (Gram- bacterial strains; Gram- strains, versus susceptible strains) was 45 µg/mL.

`CCCCCCCCCCCCOC(=O)CC(C[N+](C)(C)C)OC(=O)C(C)C` (centres unmarked) [ST 1038] was tested, and the MIC [1] was 3.12 µg/mL, the MIC [2] was 6.25 µg/mL and the MIC [3] was 6.25 µg/mL. The MIC [5] was 3.12 µg/mL, the MIC [6] was 1.56 µg/mL and the MIC [7] was 3.12 µg/mL. For the same molecule, the MIC [8] was 3.12 µg/mL, the MIC [9] was 3.12 µg/mL and the MIC [10] was 3.12 µg/mL. For the same molecule, the MIC [11] was 3.12 µg/mL, the MIC [12] was 3.12 µg/mL and the MIC [13] was 3.12 µg/mL. The MIC [14] was 3.12 µg/mL, the MIC (Gram+ bacterial strains) was 3.48 µg/mL and the MIC [20] was 25 µg/mL. For the same molecule, the MIC (Escherichia coli (92 F)) was 25 µg/mL, the MIC (Escherichia coli (R 57B)) was 100 µg/mL and the MIC [15] was 50 µg/mL. The MIC (Klebsiella oxytoca (552)) was 25 µg/mL, the MIC [16] was 25 µg/mL and the MIC (Proteus mirabilis (32)) was greater than 100 µg/mL. For the same molecule, the MIC (Proteus morganii (D.S.)) was 100 µg/mL, the MIC (Proteus vulgaris (UM)) was 100 µg/mL and the MIC [17] was 100 µg/mL. The MIC [18] was 100 µg/mL, the MIC (Salmonella typhi (J)) was 25 µg/mL and the MIC [19] was 25 µg/mL. For the same molecule, the MIC (Gram- bacterial strains) was 41.7 µg/mL.
